Key:
[1] = target: Ephrin type-B receptor 2 (Homo sapiens, UniProt P29323); test: Inhibition of EPHB2 (unknown origin) incubated for 1 hr by spectrophotometric analysis
[2] = target: Tyrosine-protein kinase Fyn (Homo sapiens, UniProt P06241); test: Inhibition of FYN (unknown origin) incubated for 1 hr by spectrophotometric analysis
[3] = target: Glycogen synthase kinase-3 beta (Homo sapiens, UniProt P49841); test: Inhibition of GSK3beta (unknown origin) incubated for 1 hr by spectrophotometric analysis
[4] = target: Tyrosine-protein kinase ABL2 (Homo sapiens, UniProt P42684); test: Inhibition of ARG (unknown origin) incubated for 1 hr by spectrophotometric analysis
[5] = target: Receptor tyrosine-protein kinase erbB-2 (Homo sapiens, UniProt P04626); test: Inhibition of HER2 (unknown origin) incubated for 1 hr by spectrophotometric analysis
[6] = target: Platelet-derived growth factor receptor beta (Homo sapiens, UniProt P09619); test: Inhibition of PDGFRbeta (unknown origin) incubated for 1 hr by spectrophotometric analysis
[7] = target: Hepatocyte growth factor receptor (Homo sapiens, UniProt P08581); test: Inhibition of c-Met (unknown origin) incubated for 1 hr by spectrophotometric analysis
[8] = target: Mitogen-activated protein kinase 14 (Homo sapiens, UniProt Q16539); test: Inhibition of p38alpha (unknown origin) incubated for 1 hr by spectrophotometric analysis
[9] = target: Insulin-like growth factor 1 receptor (Homo sapiens, UniProt P08069); test: Inhibition of IGF-1R (unknown origin) incubated for 1 hr by spectrophotometric analysis
[10] = target: Epidermal growth factor receptor (Homo sapiens, UniProt P00533); test: Inhibition of EGFR (unknown origin) incubated for 1 hr by spectrophotometric analysis
[11] = target: Tyrosine-protein kinase BTK (Homo sapiens, UniProt Q06187); test: Inhibition of BTK (unknown origin) incubated for 1 hr by spectrophotometric analysis
[12] = target: Insulin receptor (Homo sapiens, UniProt P06213); test: Inhibition of INSR (unknown origin) incubated for 1 hr by spectrophotometric analysis
[13] = target: RAC-alpha serine/threonine-protein kinase (Homo sapiens, UniProt P31749); test: Inhibition of AKT1 (unknown origin) incubated for 1 hr by spectrophotometric analysis
[14] = target: Tyrosine-protein kinase Lyn (Homo sapiens, UniProt P07948); test: Inhibition of LYNA (unknown origin) incubated for 1 hr by spectrophotometric analysis
[15] = tested on: NCI-N87; test: Cytotoxicity against human NCI-N87 cells assessed as reduction in cell survival incubated for 3 days by cell titre-glo assay; assay type: functional, cell-based; conditions: NCI-N87, 72 h
[16] = tested on: A549; test: Cytotoxicity against human A549 cells assessed as reduction in cell survival incubated for 3 days by cell titre-glo assay; assay type: functional, cell-based; conditions: A549, 72 h
[17] = Cytotoxicity against human MHCC97H cells assessed as reduction in cell survival incubated for 3 days by cell titre-glo assay; assay type: functional, cell-based; conditions: 72 h
[18] = target: Ephrin type-A receptor 1 (Homo sapiens, UniProt P21709); test: Inhibition of EPHA1 (unknown origin) incubated for 1 hr by spectrophotometric analysis
[19] = target: cAMP-dependent protein kinase catalytic subunit alpha (Homo sapiens, UniProt P17612); test: Inhibition of PKACalpha (unknown origin) incubated for 1 hr by spectrophotometric analysis
[20] = target: Tyrosine-protein kinase JAK3 (Homo sapiens, UniProt P52333); test: Inhibition of JAK3 (unknown origin) incubated for 1 hr by spectrophotometric analysis
[21] = target: Mitogen-activated protein kinase 1 (Homo sapiens, UniProt P28482); test: Inhibition of ERK2 (unknown origin) incubated for 1 hr by spectrophotometric analysis
[22] = target: Tyrosine-protein kinase SYK (Homo sapiens, UniProt P43405); test: Inhibition of SYK (unknown origin) incubated for 1 hr by spectrophotometric analysis
[23] = target: Tyrosine-protein kinase Yes (Homo sapiens, UniProt P07947); test: Inhibition of YES (unknown origin) incubated for 1 hr by spectrophotometric analysis
[24] = target: Epidermal growth factor receptor (Homo sapiens, UniProt P00533, L858R/T790M); test: Inhibition of EGFR T790M/L858R mutant (unknown origin) incubated for 1 hr by spectrophotometric analysis; assay type: protein assay
[25] = target: Epidermal growth factor receptor (Homo sapiens, UniProt P00533, L858R); test: Inhibition of EGFR L858R mutant (unknown origin) incubated for 1 hr by spectrophotometric analysis; assay type: protein assay
[26] = target: Proto-oncogene tyrosine-protein kinase ROS (Homo sapiens, UniProt P08922); test: Inhibition of ROS (unknown origin) incubated for 1 hr by spectrophotometric analysis
[27] = target: Protein-tyrosine kinase 6 (Homo sapiens, UniProt Q13882); test: Inhibition of BRK (unknown origin) incubated for 1 hr by spectrophotometric analysis
[28] = target: Aurora kinase A (Homo sapiens, UniProt O14965); test: Inhibition of Aurora A (unknown origin) incubated for 1 hr by spectrophotometric analysis
[29] = target: Receptor-type tyrosine-protein kinase FLT3 (Homo sapiens, UniProt P36888); test: Inhibition of FLT3 (unknown origin) incubated for 1 hr by spectrophotometric analysis
[30] = target: Protein kinase C alpha type (Homo sapiens, UniProt P17252); test: Inhibition of PKCalpha (unknown origin) incubated for 1 hr by spectrophotometric analysis
[31] = target: Vascular endothelial growth factor receptor 1 (Homo sapiens, UniProt P17948); test: Inhibition of FLT1 (unknown origin) incubated for 1 hr by spectrophotometric analysis
[32] = target: Vascular endothelial growth factor receptor 3 (Homo sapiens, UniProt P35916); test: Inhibition of FLT4 (unknown origin) incubated for 1 hr by spectrophotometric analysis
[33] = target: Tyrosine-protein kinase JAK1 (Homo sapiens, UniProt P23458); test: Inhibition of JAK1 (unknown origin) incubated for 1 hr by spectrophotometric analysis
[34] = target: Cyclin-dependent kinase 2 (Homo sapiens, UniProt P24941); test: Inhibition of CDK2 (unknown origin) incubated for 1 hr by spectrophotometric analysis
[35] = Cytotoxicity against human MKN45 cells assessed as reduction in cell survival incubated for 3 days by cell titre-glo assay; assay type: functional, cell-based; conditions: MKN-45, 72 h
[36] = target: Epidermal growth factor receptor (Homo sapiens, UniProt P00533, T790M); test: Inhibition of EGFR T790M mutant (unknown origin) incubated for 1 hr by spectrophotometric analysis; assay type: protein assay
[37] = target: Muscle, skeletal receptor tyrosine-protein kinase (Homo sapiens, UniProt O15146); test: Inhibition of MUSK (unknown origin) incubated for 1 hr by spectrophotometric analysis
[38] = target: Ephrin type-A receptor 2 (Homo sapiens, UniProt P29317); test: Inhibition of ECK (unknown origin) incubated for 1 hr by spectrophotometric analysis
[39] = tested on: NCI-H1975; test: Cytotoxicity against human NCI-H1975 cells assessed as reduction in cell survival incubated for 3 days by cell titre-glo assay; assay type: functional, cell-based; conditions: NCI-H1975, 72 h
[40] = target: Tyrosine-protein kinase Lck (Homo sapiens, UniProt P06239); test: Inhibition of LCK (unknown origin) incubated for 1 hr by spectrophotometric analysis

Aurora kinase A, sequence (O14965 whole entry): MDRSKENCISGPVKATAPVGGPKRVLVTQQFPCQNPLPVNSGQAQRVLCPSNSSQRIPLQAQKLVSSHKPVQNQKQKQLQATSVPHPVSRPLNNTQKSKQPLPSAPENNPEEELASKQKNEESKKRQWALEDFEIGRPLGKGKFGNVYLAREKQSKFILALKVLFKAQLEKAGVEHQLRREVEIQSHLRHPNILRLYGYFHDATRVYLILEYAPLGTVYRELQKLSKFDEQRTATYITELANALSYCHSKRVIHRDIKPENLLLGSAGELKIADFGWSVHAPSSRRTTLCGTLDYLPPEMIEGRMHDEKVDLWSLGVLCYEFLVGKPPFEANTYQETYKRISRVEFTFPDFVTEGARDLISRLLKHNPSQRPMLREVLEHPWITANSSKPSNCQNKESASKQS
RAC-alpha serine/threonine-protein kinase, sequence (P31749 whole entry): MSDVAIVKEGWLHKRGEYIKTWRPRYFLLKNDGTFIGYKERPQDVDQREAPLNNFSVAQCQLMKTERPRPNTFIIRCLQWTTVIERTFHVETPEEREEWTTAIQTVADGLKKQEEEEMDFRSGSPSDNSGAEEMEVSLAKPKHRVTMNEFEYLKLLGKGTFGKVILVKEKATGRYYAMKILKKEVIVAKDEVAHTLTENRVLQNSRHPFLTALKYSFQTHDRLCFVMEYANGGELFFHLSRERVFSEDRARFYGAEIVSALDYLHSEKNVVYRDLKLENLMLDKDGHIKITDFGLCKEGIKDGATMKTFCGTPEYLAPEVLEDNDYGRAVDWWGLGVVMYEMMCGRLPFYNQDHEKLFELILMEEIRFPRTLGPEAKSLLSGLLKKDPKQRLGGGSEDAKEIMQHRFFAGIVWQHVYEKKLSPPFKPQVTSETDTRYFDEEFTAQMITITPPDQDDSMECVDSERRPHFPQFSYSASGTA
Receptor tyrosine-protein kinase erbB-2, sequence (P04626 whole entry): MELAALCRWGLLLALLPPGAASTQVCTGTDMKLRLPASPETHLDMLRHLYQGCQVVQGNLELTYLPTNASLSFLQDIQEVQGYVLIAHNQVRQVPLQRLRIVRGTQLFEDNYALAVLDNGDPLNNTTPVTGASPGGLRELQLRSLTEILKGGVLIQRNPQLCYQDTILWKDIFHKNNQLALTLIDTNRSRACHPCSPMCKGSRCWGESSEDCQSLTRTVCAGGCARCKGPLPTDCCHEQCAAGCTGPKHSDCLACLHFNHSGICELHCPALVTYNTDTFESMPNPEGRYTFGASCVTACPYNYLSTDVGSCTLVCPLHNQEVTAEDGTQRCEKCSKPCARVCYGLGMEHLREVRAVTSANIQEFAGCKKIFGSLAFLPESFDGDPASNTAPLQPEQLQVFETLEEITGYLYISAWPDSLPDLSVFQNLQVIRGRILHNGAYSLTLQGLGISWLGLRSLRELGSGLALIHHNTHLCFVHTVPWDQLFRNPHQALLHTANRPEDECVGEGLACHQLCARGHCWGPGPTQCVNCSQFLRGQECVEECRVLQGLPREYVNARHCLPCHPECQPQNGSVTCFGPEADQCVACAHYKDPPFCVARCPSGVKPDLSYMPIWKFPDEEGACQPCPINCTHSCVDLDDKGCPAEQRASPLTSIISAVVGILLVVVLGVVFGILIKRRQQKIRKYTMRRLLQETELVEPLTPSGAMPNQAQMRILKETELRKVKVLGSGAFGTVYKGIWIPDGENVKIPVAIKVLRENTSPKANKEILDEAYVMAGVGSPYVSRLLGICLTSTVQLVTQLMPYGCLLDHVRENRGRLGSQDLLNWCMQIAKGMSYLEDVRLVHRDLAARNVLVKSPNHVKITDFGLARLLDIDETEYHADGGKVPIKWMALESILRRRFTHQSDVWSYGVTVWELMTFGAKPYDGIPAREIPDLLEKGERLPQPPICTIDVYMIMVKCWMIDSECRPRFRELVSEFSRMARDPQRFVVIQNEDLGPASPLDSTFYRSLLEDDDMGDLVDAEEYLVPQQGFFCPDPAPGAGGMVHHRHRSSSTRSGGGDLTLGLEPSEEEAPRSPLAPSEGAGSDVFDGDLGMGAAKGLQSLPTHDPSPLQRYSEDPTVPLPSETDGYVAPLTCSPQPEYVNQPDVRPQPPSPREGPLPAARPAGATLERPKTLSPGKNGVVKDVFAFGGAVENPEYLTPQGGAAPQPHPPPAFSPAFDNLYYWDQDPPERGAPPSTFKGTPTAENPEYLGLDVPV
Epidermal growth factor receptor (Homo sapiens, UniProt P00533), sequence (P00533 whole entry): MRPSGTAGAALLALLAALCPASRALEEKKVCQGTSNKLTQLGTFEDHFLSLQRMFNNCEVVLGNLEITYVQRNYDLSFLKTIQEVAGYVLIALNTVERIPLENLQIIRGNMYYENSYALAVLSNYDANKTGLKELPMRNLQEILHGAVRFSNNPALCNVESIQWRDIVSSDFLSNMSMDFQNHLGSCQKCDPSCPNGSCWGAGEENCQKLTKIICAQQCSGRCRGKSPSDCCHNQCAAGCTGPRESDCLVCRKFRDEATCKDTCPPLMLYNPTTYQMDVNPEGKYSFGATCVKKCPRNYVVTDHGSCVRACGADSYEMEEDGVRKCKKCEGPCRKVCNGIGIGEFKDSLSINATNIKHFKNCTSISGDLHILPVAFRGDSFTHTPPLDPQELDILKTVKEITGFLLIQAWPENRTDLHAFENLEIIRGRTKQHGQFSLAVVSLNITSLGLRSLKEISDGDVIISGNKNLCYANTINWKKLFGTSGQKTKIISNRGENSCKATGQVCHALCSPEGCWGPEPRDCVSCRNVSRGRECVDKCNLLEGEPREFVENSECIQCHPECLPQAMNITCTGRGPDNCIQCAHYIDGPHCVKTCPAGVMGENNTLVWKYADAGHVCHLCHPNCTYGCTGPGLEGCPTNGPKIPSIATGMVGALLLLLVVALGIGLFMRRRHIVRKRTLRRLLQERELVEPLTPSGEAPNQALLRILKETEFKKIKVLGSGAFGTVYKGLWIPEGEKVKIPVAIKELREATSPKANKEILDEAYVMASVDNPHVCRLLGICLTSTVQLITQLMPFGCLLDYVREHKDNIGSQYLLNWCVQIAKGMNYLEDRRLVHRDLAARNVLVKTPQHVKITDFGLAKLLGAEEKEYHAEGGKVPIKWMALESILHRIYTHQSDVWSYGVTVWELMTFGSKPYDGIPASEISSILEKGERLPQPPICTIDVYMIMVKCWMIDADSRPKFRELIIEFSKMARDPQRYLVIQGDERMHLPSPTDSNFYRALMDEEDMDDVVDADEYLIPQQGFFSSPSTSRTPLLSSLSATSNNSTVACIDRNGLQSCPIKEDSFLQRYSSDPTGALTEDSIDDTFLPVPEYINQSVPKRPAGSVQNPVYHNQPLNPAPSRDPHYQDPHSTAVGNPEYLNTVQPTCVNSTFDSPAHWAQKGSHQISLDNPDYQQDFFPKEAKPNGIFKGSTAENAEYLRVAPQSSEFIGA
Mitogen-activated protein kinase 14, sequence (Q16539 whole entry): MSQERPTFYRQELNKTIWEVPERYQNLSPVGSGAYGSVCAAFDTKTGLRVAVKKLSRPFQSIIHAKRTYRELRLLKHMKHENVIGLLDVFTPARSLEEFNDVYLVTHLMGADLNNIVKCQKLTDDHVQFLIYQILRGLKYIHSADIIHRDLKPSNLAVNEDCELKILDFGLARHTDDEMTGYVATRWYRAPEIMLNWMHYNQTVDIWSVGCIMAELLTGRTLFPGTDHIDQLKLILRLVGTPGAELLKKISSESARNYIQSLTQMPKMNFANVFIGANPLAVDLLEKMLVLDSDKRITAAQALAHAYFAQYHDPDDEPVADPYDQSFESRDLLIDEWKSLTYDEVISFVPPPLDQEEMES
Tyrosine-protein kinase Fyn, sequence (P06241 whole entry): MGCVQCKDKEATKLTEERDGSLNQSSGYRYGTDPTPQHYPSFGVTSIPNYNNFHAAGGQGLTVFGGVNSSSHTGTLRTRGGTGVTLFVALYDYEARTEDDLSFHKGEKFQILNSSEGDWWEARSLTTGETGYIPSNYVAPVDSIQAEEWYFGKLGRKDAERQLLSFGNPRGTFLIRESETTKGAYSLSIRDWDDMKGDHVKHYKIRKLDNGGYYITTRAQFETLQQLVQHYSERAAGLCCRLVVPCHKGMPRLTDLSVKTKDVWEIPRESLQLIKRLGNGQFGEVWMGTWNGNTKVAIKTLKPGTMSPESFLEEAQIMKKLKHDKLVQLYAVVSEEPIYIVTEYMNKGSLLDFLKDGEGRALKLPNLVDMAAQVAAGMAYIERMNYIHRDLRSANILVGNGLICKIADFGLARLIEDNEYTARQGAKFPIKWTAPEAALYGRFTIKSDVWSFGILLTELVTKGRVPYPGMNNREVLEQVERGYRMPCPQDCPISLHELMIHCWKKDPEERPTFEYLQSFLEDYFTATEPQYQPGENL
Tyrosine-protein kinase Lyn, sequence (P07948 whole entry): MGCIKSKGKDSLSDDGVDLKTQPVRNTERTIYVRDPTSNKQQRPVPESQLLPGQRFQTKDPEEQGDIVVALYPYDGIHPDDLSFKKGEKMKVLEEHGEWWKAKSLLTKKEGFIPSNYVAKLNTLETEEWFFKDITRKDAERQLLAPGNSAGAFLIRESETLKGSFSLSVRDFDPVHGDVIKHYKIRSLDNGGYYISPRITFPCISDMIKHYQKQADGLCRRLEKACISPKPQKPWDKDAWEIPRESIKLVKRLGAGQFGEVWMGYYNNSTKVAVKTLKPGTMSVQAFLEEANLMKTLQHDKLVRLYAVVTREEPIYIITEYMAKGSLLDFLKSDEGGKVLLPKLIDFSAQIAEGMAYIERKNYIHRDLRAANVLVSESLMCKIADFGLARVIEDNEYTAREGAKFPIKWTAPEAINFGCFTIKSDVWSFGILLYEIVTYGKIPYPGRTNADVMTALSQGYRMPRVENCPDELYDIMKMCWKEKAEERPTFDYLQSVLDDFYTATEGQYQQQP

**Q.** Which IC50 [1] does the source give for `CN1C(=O)COc2c1cnc1ccc(Sc3nnc4c(F)cc(-c5cnn(C)c5)cn34)cc21` [DALMELITINIB] here?
**A.** > 30 µM

**Q.** And the IC50 [2]?
**A.** 11.2 µM

**Q.** And the IC50 [3]?
**A.** 16.2 µM

**Q.** What about the IC50 [4] of the same compound?
**A.** > 30 µM

**Q.** What about the IC50 [5] of the same compound?
**A.** > 30 µM

**Q.** And the IC50 [6]?
**A.** > 30 µM

**Q.** And the IC50 [7]?
**A.** 0.0007 µM

**Q.** What about the IC50 [8] of the same compound?
**A.** > 30 µM

**Q.** What about the IC50 [9] of the same compound?
**A.** > 30 µM

**Q.** And the IC50 [10]?
**A.** > 30 µM

**Q.** And the IC50 [11]?
**A.** > 30 µM

**Q.** And the IC50 [12]?
**A.** > 30 µM

**Q.** What about the IC50 [13] of the same compound?
**A.** > 30 µM

**Q.** And the IC50 [14]?
**A.** > 30 µM

**Q.** What about the IC50 [15] of the same compound?
**A.** > 10 µM

**Q.** What about the IC50 [16] of the same compound?
**A.** > 10 µM

**Q.** What about the IC50 [17] of the same compound?
**A.** 0.006 µM

**Q.** And the IC50 [18]?
**A.** > 30 µM

**Q.** And the IC50 [19]?
**A.** > 30 µM

**Q.** What about the IC50 [20] of the same compound?
**A.** > 30 µM

**Q.** And the IC50 [21]?
**A.** > 30 µM

**Q.** What about the IC50 [22] of the same compound?
**A.** > 30 µM

**Q.** What about the IC50 [23] of the same compound?
**A.** > 30 µM

**Q.** What about the IC50 [24] of the same compound?
**A.** > 30 µM

**Q.** What about the IC50 [25] of the same compound?
**A.** > 30 µM

**Q.** And the IC50 [26]?
**A.** 2.83 µM

**Q.** And the IC50 [27]?
**A.** > 30 µM

**Q.** What about the IC50 [28] of the same compound?
**A.** > 30 µM

**Q.** What about the IC50 [29] of the same compound?
**A.** > 30 µM

**Q.** What about the IC50 [30] of the same compound?
**A.** > 30 µM

**Q.** And the IC50 [31]?
**A.** > 30 µM

**Q.** What about the IC50 [32] of the same compound?
**A.** > 30 µM

**Q.** What about the IC50 [33] of the same compound?
**A.** > 30 µM

**Q.** And the IC50 [34]?
**A.** > 30 µM

**Q.** What about the IC50 [35] of the same compound?
**A.** 0.006 µM

**Q.** And the IC50 [36]?
**A.** > 30 µM

**Q.** And the IC50 [37]?
**A.** > 30 µM

**Q.** What about the IC50 [38] of the same compound?
**A.** > 30 µM

**Q.** And the IC50 [39]?
**A.** > 10 µM

**Q.** What about the IC50 [40] of the same compound?
**A.** > 30 µM
